SMILES strings stand for the structures.

From patent publication US10501435B2, “Substituted quinazoline compounds and uses thereof for modulating glucocerebrosidase activity” (Northwestern University, priority 2015, dated 2019) come the findings set out here.

Sequence of Glucocerebrosidase (P04062 40-536): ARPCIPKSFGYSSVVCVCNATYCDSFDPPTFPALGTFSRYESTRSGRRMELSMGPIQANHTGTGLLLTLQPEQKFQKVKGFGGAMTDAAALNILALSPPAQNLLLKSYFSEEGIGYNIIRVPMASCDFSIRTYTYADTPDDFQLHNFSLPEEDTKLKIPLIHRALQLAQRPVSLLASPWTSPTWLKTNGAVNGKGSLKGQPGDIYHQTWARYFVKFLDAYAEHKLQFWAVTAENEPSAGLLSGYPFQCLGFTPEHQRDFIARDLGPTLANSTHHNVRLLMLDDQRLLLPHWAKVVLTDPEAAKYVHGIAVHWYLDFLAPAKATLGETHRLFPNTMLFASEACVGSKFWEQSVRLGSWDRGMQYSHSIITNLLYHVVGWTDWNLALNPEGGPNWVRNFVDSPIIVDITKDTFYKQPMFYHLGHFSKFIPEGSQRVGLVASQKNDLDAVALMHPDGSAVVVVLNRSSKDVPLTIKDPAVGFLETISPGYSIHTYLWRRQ

The target of the first assay is Glucocerebrosidase (Homo sapiens (Human), UniProt P04062). The assay can be described thus: Glucocerebrosidase activity assay with blue substrate (4MU-Glc). The conditions noted are these: cells marked (act). Type of assay: biochemical. On the procedure:
The compounds in DMSO solution 0.5 μL/well were transferred to a black 96-well plate. The final titration was 24 nM to 50 μM, 12 concentrations, 2 times dilution. […] After 5 min of incubation at room temperature, the enzyme reaction was initiated by the addition of 33 μL/well blue substrate. Final concentrations of the blue substrate (4MU-Glc) was 1.5 mM. The blue substrate reaction was terminated by the addition of 33 μL/well stop solution (1 M NaOH and 1 M glycine mixture, pH 10) after 30 min of incubation at 37° C. The fluorescence was then measured in the Biotek Synergy H1 multi-mode plate reader with Ex=365 nm and Em=440 nm.
Additional compounds were prepared and tested according to the procedures provided in the examples above.
Additional substituted quinazoline compounds were prepared and tested according to the procedures provided in the examples above.
Turning to `Nc1nc(-c2cccnc2)nc2ccccc12` [compound 35], the “IC50 or AC50 (μM): AC50 (act)” value was “Weak (act)”. The same measure, in the same setting: to `CN1CCN(c2ccc(C(=O)N3CCN(c4nc(-c5cccnc5)nc5ccccc45)CC3)cc2)CC1` [compound 38] belongs “Weak (act)”.

Turning to `c1ccc(Nc2nc(-c3cccnc3)nc3ccccc23)cc1` [compound 50], the “IC50 or AC50 (μM): AC50 (act)” value is recorded as “Weak (act)”. Still for that read-out and setting: the result for `c1ccc(C2CCCN(c3nc(-c4cccnc4)nc4ccccc34)C2)cc1` (centres unmarked) [compound 82] reads “Weak (act)”; that for `[N-]=[N+]=Nc1c(F)c(F)c(CNc2nc(-c3cccnc3)nc3ccccc23)c(F)c1F` [compound 37], “Weak (act)”. As for `CC(C)(C)Nc1nc(-c2cccnc2)nc2ccccc12` [compound 54], the “IC50 or AC50 (μM): AC50 (act)” value is reported as “Weak (act)”.

Still in this assay, the particulars now being: cells marked (act); read-out: IC50 or AC50 (μM): AC50 (act).
One may read the AC50 as the midpoint of the concentration-response curve, whichever way the signal moves. As for `CCN(CC1COc2ccccc2O1)c1nc(-c2cccnc2)nc2ccccc12` (centres unmarked) [compound 28], the half-maximal activity concentration (AC50) amounted to 2.82 µM. For `CN(Cc1scc2c1OCCO2)c1nc(-c2cccnc2)nc2ccccc12` [compound 24], the AC50 was 2 µM. Turning to `CN(CCC1COc2ccccc2O1)c1nc(-c2cccnc2)nc2ccccc12` (centres unmarked) [compound 32], the AC50 is 3.16 µM. For the compound `CN(CCc1cccc(F)c1)c1nc(-c2cccnc2)nc2ccccc12` [compound 59], the AC50 came out at 4.47 µM. Still for that read-out and setting: the result for `CN(Cc1ccc2c(c1)OCO2)c1nc(-c2cccnc2)nc2ccccc12` [compound 11] reads 1 µM; that for `CN(CC1COCCO1)c1nc(-c2cccnc2)nc2ccccc12` (centres unmarked) [compound 6], 11.2 µM; that for `CN(Cc1ccc(-n2ccnc2)cc1)c1nc(-c2cccnc2)nc2ccccc12` [compound 31], 19.9 µM. Still for that read-out and setting: to `CN(Cc1ccc2nsnc2c1)c1nc(-c2cccnc2)nc2ccccc12` [compound 21] belongs 3.55 µM; to `CN1Cc2ccc(CN(C)c3nc(-c4cccnc4)nc4ccccc34)cc2C1` [compound 13], 44.7 µM; to `CN(Cc1ccccn1)c1nc(-c2cccnc2)nc2ccccc12` [compound 5], 35.5 µM.

Consider `Cc1ccc(S(=O)(=O)N2CCN(c3nc(-c4cccnc4)nc4ccccc34)CC2)cc1` [compound 26], for which the AC50 came to 1 µM. Still for that read-out and setting: to `CN(Cc1ccc2c(c1)OCCO2)c1nc(-c2cccnc2)nc2ccccc12` [compound 19] belongs 3.98 µM; to `CN(c1nc(-c2cccnc2)nc2ccccc12)C1CCCCC1` [compound 56], 5.01 µM. Still for that read-out and setting: the result for `CC(C)Cc1noc(CN(C)c2nc(-c3cccnc3)nc3ccccc23)n1` [compound 25] reads 35.5 µM. Same read-out and setting: to `CN(Cc1nc2ccccc2s1)c1nc(-c2cccnc2)nc2ccccc12` [compound 14] belongs 1.12 µM; to `CN(Cc1cccnc1)c1nc(-c2cccnc2)nc2ccccc12` [compound 7], 12.6 µM; to `CC(C)(C)OC(=O)N1CCN(c2nc(-c3cccnc3)nc3ccccc23)CC1` [compound 22], 10 µM. In the case of `Nc1ccc(CCNc2nc(-c3cccnc3)nc3ccccc23)cc1` [compound 71], the AC50 is 2 µM. Same read-out and setting: the result for `c1ccc(CC2CCCCN2c2nc(-c3cccnc3)nc3ccccc23)cc1` (centres unmarked) [compound 83] reads 2.24 µM; that for `CN1CCN(c2ccc(CNc3nc(-c4cccnc4)nc4ccccc34)cc2)CC1` [compound 36], 39.8 µM.

In the case of `c1cncc(-c2nc(N3C4CCC3CC4)c3ccccc3n2)c1` [compound 64], the AC50 is 2.24 µM. On the same count and under the same terms, to `CN(Cc1ccncc1)c1nc(-c2cccnc2)nc2ccccc12` [compound 8] belongs 15.8 µM; to `c1cncc(-c2nc(NCCC3COc4ccccc4O3)c3ccccc3n2)c1` (centres unmarked) [compound 27], 0.6 µM; to `c1ccc(CC2CCCN(c3nc(-c4cccnc4)nc4ccccc34)C2)cc1` (centres unmarked) [compound 87], 2.51 µM.

In the case of `CN(Cc1cnccn1)c1nc(-c2cccnc2)nc2ccccc12` [compound 9], the AC50 is 14.1 µM. Still for that read-out and setting: to `CN(Cc1nc2ccccc2o1)c1nc(-c2cccnc2)nc2ccccc12` [compound 18] belongs 11.2 µM; to `CN(Cc1cnc2ccccc2n1)c1nc(-c2cccnc2)nc2ccccc12` [compound 10], 0.89 µM; to `CN(CC1COc2ccccc2O1)c1nc(-c2cccnc2)nc2ccccc12` (centres unmarked) [compound 3], 1.78 µM. For `COc1ccccc1CN(C)c1nc(-c2cccnc2)nc2ccccc12` [compound 16], the concentration at half-maximal activity (AC50) came out at 3.13 µM. On the same count and under the same terms, to `c1cncc(-c2nc(N3CCN(CC4COc5ccccc5O4)CC3)c3ccccc3n2)c1` (centres unmarked) [compound 30] belongs 3.13 µM; to `CN(Cc1ccc2ccccc2c1)c1nc(-c2cccnc2)nc2ccccc12` [compound 17], 1.56 µM.

Staying with this assay, now noted: cells marked activator.
Regarding `CN(c1nc(-c2cccnc2)nc2ccccc12)C1CCCCCCC1` [compound 123], the “Activity AC50 or IC50 (μM unless nM indicated): AC50, activator” value is given as “Weak activator”. Same read-out and setting: the result for `CN(CCOc1ccc(C#CCOCCOCCNc2nc(-c3cccnc3)nc3ccccc23)cc1)c1nc(-c2cccnc2)nc2ccccc12` [compound 110] reads “Weak activator”. Same read-out and setting: the result for `CN(CCOc1ccc(C#CCCCCCCCCC(=O)ON2C(=O)CCC2=O)cc1)c1nc(-c2cccnc2)nc2ccccc12` [compound 153] reads “activator”; that for `CN(c1nc(-c2cccnc2)nc2ccccc12)C1Cc2ccc(C#CCCCCCCCCC(=O)ON3C(=O)CCC3=O)cc2C1` (centres unmarked) [compound 105], “Weak activator”. The same measure, in the same setting: to `c1cncc(-c2nc(N3CCCOCC3)c3ccccc3n2)c1` [compound 116] belongs “Weak activator”. As to `CN(CCOc1ccccc1)c1nc(-c2ccccn2)nc2ccccc12` [compound 143], the “Activity AC50 or IC50 (μM unless nM indicated): AC50, activator” value was “Weak activator”. The same measure, in the same setting: the result for `CN(CCCCCCCCCCN(C)c1nc(-c2cccnc2)nc2ccccc12)c1nc(-c2cccnc2)nc2ccccc12` [compound 112] reads “Weak activator”; that for `COC(=O)CCCCCCCCC#Cc1ccc(OCCN(C)c2nc(-c3cccnc3)nc3ccccc23)cc1` [compound 109], “Weak activator”.

The assay is the same for the next values; noted with them: cells marked activator; read-out: Activity AC50 or IC50 (μM unless nM indicated): AC50, activator.
As for `CN(CCOc1ccccc1)c1nc(-c2ccco2)nc2ccccc12` [compound 133], the AC50 worked out at 31.6 µM. Take `CN(CCCOc1ccccc1)c1nc(-c2cccnc2)nc2ccccc12` [compound 137]: the AC50 turned out to be 5.01 µM. Still for that read-out and setting: to `CN(CCOc1ccccc1)c1nc(-c2ccoc2)nc2ccccc12` [compound 134] belongs 0.65 µM; to `CN(CCCCc1ccccc1)c1nc(-c2cccnc2)nc2ccccc12` [compound 120], 3.16 µM; to `COC(=O)CCCCCCCCCCc1ccc(OCCN(C)c2nc(-c3cccnc3)nc3ccccc23)cc1` [compound 117], 7.08 µM. Still for that read-out and setting: the result for `CN(CCOc1ccccc1)c1nc(-c2ccccc2F)nc2ccccc12` [compound 128] reads 1.25 µM; that for `CN(CCOc1ccc(C#CCCCCCCC#Cc2ccc(OCCN(C)c3nc(-c4cccnc4)nc4ccccc34)cc2)cc1)c1nc(-c2cccnc2)nc2ccccc12` [compound 111], 35 µM. Still for that read-out and setting: to `CC(CN(C)c1nc(-c2cccnc2)nc2ccccc12)Oc1ccccc1` (centres unmarked) [compound 138] belongs 5.62 µM; to `CN(c1nc(-c2cccnc2)nc2ccccc12)C1CCCCCC1` [compound 121], 8.91 µM; to `CN(CCOc1ccccc1)c1nc(-c2cncnc2)nc2ccccc12` [compound 127], 1.25 µM. Turning to `CC(COc1ccccc1)N(C)c1nc(-c2cccnc2)nc2ccccc12` (centres unmarked) [compound 139], the AC50 was determined as 5.62 µM. `Cc1ccc(OCCNc2nc(-c3cccnc3)nc3ccccc23)cc1` [compound 90]: the AC50 was found to be 0.62 µM. For `CN(CCOc1ccccc1)c1nc(Cl)nc2ccccc12` [compound 124], the AC50 was 10 µM. With `CN(c1nc(-c2cccnc2)nc2ccccc12)C1CCCC1` [compound 118], the AC50 was 22.4 µM. On the same count and under the same terms, to `CN(CCc1ccccc1)c1nc(-c2cccnc2)nc2ccccc12` [compound 122] belongs 5.01 µM; to `COc1ccccc1OCCN(C)c1nc(-c2cccnc2)nc2ccccc12` [compound 135], 22.4 µM; to `c1cncc(-c2nc(N3CCOc4ccccc4C3)c3ccccc3n2)c1` [compound 115], 7.94 µM. Same read-out and setting: to `C#CCOCCOCCNc1nc(-c2cccnc2)nc2ccccc12` [compound 113] belongs 12.6 µM; to `CN(CCOc1ccccc1)c1nc(-c2ccncc2)nc2ccccc12` [compound 130], 3.98 µM; to `Cc1ccc(OCCN(C)c2nc(-c3cccnc3)nc3ccccc23)cc1` [compound 136], 3.55 µM.
